Experiments:
[1] = tested on: bronchoconstriction in guinea pigs due to an intravenous administration of synthetic leukotriene D4 (LTD4); assay: Inhibition of LTD4-induced bronchoconstriction in guinea pigs, oral dosing (Konzett-Rossler method); type: in vivo, guinea pig (Hartley strain); conditions: Cavia porcellus, 1 h, guinea pig, p.o. one hour before LTD4 10 μg/kg i.v., inhibition of overflow volume 30 seconds after LTD4, read-out: ID50 (p.o.) (50% inhibitory dose)
Protocol: Guinea pigs of Hartley strain, both male and female, with body weights about 400 g were assigned to groups of 6 to 10 individuals, and the bronchoconstriction due to LTD4 was measured according to the method of Konzett-Rossler [Konzett, H. and Rossler, R.: Naunyn-Schmiedebergs Archiv fur Experimentelle Pathologie und Pharmakologie 195, 71-74 (1940)]. Each guinea pig was fixed in supine position under urethane anesthesia (1.5 g/kg, intraperitoneal) and the trachea was incised and connected to an artificial respiration apparatus, Rodent Respirator Model 680 [Harvard Apparatus Company, U.S.A.] via a cannula. The branch tube of this tracheal cannula was connected to Bronchospasm Transducer Model 7020 [Ugobasil Biological Researach Apparatus, Italy]. Under the conditions of 4 to 7 ml of air per stroke, 70 strokes per minute and a lung loading pressure of 10 cmH2 O, the volume of overflowing air was recorded on Rectigraph-8S (San-ei Sokki Co. Ltd., Japan) via a transducer. After administration of gallamine.triethiodide (1 mg/kg, i.v.), a solution of LTD4 in physiological saline (10 μg/kg) was intravenously administered and the bronchoconstriction elicited thereby was recorded for 15 minutes. […]
*^1 ID50 (50% inhibitory dose): Each value was calculated from […]

mice = assay: Acute oral toxicity in mice; type: in vivo, mouse (Jcl:ICR strain); conditions: male mice
Protocol: Five 5-week-old male mice per group, of Jcl:ICR strain, weighing about 30 g each, were used. Compound (I')-1 was suspended in a 5% solution of gum arabic and administered orally at the level of 0.2 ml per 10 grams body weight.

How did the ED50 [1] turn out when `CCCc1c(OCCCOc2ccc(C(=O)O)cc2Br)ccc(C(C)=O)c1OC(C)=O` [Compound (I')-1, 4-[3-(3-acetoxy-4-acetyl-2-propylphenoxy)propoxy]-3-bromobenzoic acid] was run?
Its ED50 is 47 µmol/kg.

What about the autopsy findings (mice; oral 500 mg/kg, autopsy after 7 days) of the same compound?
The autopsy findings was “did not reveal any abnormalities”.

What about the “symptoms attributable to the compound” value (mice; single oral dose 500 mg/kg) of the same compound?
Its value is “no symptoms that could be attributable to compound (I')-1”.

From patent publication US4714774A, “Benzoic acid derivatives and their production” (Takeda Chemical Industries, Ltd., priority 1984, dated 1987)
